{
  "source": "patent US20110044907A1",
  "about": "“IN VIVO SCREENING ASSAYS” (priority 2009, published 2011)",
  "key": {"[1]": {"test_system": "BxPC-3-GFP tumor cells", "experiment": "Surgical orthotopic implantation of BxPC-3-GFP pancreatic tumor cells in nude mice", "type": "in vivo, mouse", "conditions": "female NCr nu/nu mice; AB0023 30 mg/kg IP twice per week 6 weeks; Gemzar 200 mg/kg IP once per week 3 weeks", "experimental": "Tumor formation and metastasis are monitored by fluorescence imaging.\nApproximately 75 female nude mice (NCr nu/nu), 5-6 weeks old, are anesthetized by intraperitoneal injection of a solution of 100 mg/kg ketamine and 5 mg/kg xylazine. Under anesthesia, BxPC-3-GFP tumor cells are surgically implanted, by suturing into the pancreas. […] Each group contains 15 animals, and all administrations are intraperitoneal.\nBody weight is determined once per week.\nAt the conclusion of the study, blood is collected by cardiac puncture and one ml is used for preparation of serum.\nThe other half is snap frozen for RNA isolation."}, "[2]": {"test_system": "MDA-MB-231-luc-D3H2LN cells", "experiment": "Breast tumor metastasis model, intracardiac injection, bioluminescent imaging", "type": "in vivo, mouse", "conditions": "AB0023 30 mg/kg IP twice per week; taxol 5 mg/kg daily", "experimental": "In this model system, MDA-MB-231-luc-D3H2LN cells (Caliper Life Sciences, Hopkinton, Mass.), a derivative of a human breast cancer cell line that has been stably transfected with a luciferase gene were introduced into female nude mice by intracardiac injection. The cells are disseminated through the circulation, and the occurrence and location of metastases are determined by in vivo bioluminescent imaging (BLI).\nApproximately 80 female nude mice (NCr nu/nu), 8-10 weeks old, were anesthetized by intraperitoneal injection of a solution of 100 mg/kg ketamine and 5 mg/kg xylazine. […] Bioluminescence from whole body and lung projection was measured and expressed as photons per second. If the ratio of whole body luminescence to lung luminescence was less than 3, the mouse was excluded from the study. […]\nVentral and dorsal views of the animals were obtained by in vivo bioluminescent imaging (BLI) on days 0, 7, 10, 13, 16, 21, 24 AND 28; using the IVIS®-Spectrum imaging system (Caliper Life Sciences, Hopkinton, Mass.). Data were analyzed using Living Image 3.0 Software (Caliper Life Sciences, Hopkinton, Mass.).\nBody weight was measured once per week for the first two weeks of the study, then three times per week until the conclusion of the study. […]"}},
  "note": "Counter-ions that a name gives are not always drawn.",
  "data": [
    {"smiles": "Nc1ccn([C@@H]2O[C@H](CO)[C@@H](O)C2(F)F)c(=O)n1", "note": "[Gemzar, gemcitabine-HCl]", "values": [
      {"measurement": "mean tumor volume", "setting": "[1]", "value": "reduced"}
    ]},
    {"smiles": "CC(=O)O[C@H]1C(=O)[C@@]2(C)[C@H]([C@H](OC(=O)c3ccccc3)[C@]3(O)C[C@H](OC(=O)[C@H](O)[C@@H](NC(=O)c4ccccc4)c4ccccc4)C(C)=C1C3(C)C)[C@]1(OC(C)=O)CO[C@@H]1C[C@@H]2O", "note": "[taxol]", "values": [
      {"measurement": "survival advantage compared to vehicle-treated animals", "setting": "[2]", "value": "not observed"}
    ]}
  ]
}
